The values below come from US12502344B2, “Deodorants comprising alkylamido and alkenylamido-morpholinium compositions” (Colonial Chemical, Inc., priority 2021, dated 2025).

The nature of the test: Deodorization evaluation, forced-preference panel test of acetic acid malodor on cotton balls. To be noted: approx. 50 mg acetic acid on cotton ball in closed 32 oz jar; sprayed with 0.25 g, 0.5 g, 2.0 g and 5 g of approx. 0.8% by weight active in water; equilibrated 2 hrs; ten panelists; FIG. 1. As to the method: Deodorization Evaluations. Forced Preference Tests.
In the deodorization studies, two substances were tested for their ability to deodorize malodor: 1) Soyaethyl Morpholinium Ethosulfate (U.S. Pat. No. 4,851,214); and 2) Soyamidopropyl Ethylmorpholinium Ethosulfate (from this invention). These two products are Products 1 and 2, respectively, in FIG. 1. Both materials contain a quaternized morpholinium functionality within the deodorant molecule. All test formulations were approximately 0.8% by weight of active deodorizer/sequestrant in water.
Both products were tested as follows: Approximately 50 milligrams of acetic acid were placed on cotton balls (approximately 0.63 g in weight). The cotton balls were placed in 32 oz plastic jars, one per jar, and the lids were screwed on. After equilibrating for 4 hours the cotton balls were sprayed with predetermined amounts (0.25 g, 0.5 g, 2.0 g and 5 g) of deodorizing spray formulations and placed back in closed containers where they equilibrated for 2 hrs. In forced-preference testing, ten panelists were asked to open each jar and rate each on a scale from 1 to 10 with 10 being the highest level of acetic acid detected. The results of those ratings appear in FIG. 1 where the ratings given for each test substance is graphed versus the weight in grams of deodorizing formulations that had been applied to each cotton ball. […]

Regarding `CCCCCCCC/C=C\CCCCCCCC[N+]1(CC)CCOCC1` [Product 1, Soyaethyl Morpholinium Ethosulfate], the “perceivable malodor (odor rating on a scale from 1 to 10, 10 being the highest level of acetic acid detected)” value is reported as “reduced the perceivable malodor in a concentration-dependent fashion”.

Consider “Soyamidopropyl Ethylmorpholinium Ethosulfate [Product 2]”, for which the “perceivable malodor (odor rating on a scale from 1 to 10, 10 being the highest level of acetic acid detected)” value was “reduced the perceivable malodor in a concentration-dependent fashion”.
